Data published in patent US11318208B2, “Synthetic compound” (Syntab Therapeutics GmbH, priority 2016, dated 2022).
Square brackets hold non-standard residues; d marks the D form. Ends that are not written are not given here. * marks the point of attachment. Tyr(3-NO2) = N[C@@H](Cc1ccc(O)c([N+](=O)[O-])c1)C(=O)O; Hyp = O=C(O)[C@@H]1C[C@@H](O)CN1; For = O=C*

Experiments:
[1] = target: T1, α3 Integrin (Homo sapiens, UniProt P05556+P26006); assay: FACS analysis of cell binding, binder targeting α3 Integrin; settings: FIG. 8, 200 nM biotinylated binder, vs scrambled variant
T1 construct: endogenous in cells; host or cells: A431
T1 sequence (P26006 33-872 limits assumed): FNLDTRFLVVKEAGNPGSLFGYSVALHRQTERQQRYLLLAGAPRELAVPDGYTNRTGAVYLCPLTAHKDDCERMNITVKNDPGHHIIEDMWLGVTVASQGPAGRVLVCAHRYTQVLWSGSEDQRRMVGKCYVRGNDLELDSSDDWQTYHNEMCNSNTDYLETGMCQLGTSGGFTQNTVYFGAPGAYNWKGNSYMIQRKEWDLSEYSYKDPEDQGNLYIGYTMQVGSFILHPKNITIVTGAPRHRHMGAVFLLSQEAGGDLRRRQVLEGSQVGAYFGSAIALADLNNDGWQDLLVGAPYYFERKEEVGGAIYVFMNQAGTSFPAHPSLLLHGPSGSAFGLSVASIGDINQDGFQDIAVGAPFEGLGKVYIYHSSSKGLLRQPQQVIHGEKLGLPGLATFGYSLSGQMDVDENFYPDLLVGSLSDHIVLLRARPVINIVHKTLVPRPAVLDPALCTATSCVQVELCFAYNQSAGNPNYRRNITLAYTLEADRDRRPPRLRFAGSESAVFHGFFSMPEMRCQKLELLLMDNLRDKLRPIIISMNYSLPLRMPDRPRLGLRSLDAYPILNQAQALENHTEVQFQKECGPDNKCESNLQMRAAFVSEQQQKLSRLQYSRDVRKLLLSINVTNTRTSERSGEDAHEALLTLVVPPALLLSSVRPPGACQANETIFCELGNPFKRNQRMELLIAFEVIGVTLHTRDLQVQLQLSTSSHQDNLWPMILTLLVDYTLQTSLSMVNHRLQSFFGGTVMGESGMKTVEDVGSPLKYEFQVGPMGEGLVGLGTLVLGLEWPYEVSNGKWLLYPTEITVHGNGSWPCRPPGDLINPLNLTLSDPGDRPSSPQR
T1 sequence (P26006 873-1051 limits assumed): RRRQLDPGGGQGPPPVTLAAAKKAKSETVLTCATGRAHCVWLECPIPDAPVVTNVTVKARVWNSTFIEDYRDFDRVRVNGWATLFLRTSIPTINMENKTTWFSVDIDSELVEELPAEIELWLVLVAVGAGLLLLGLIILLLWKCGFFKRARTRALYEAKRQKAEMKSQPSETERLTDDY
T1 sequence (P05556 21-798): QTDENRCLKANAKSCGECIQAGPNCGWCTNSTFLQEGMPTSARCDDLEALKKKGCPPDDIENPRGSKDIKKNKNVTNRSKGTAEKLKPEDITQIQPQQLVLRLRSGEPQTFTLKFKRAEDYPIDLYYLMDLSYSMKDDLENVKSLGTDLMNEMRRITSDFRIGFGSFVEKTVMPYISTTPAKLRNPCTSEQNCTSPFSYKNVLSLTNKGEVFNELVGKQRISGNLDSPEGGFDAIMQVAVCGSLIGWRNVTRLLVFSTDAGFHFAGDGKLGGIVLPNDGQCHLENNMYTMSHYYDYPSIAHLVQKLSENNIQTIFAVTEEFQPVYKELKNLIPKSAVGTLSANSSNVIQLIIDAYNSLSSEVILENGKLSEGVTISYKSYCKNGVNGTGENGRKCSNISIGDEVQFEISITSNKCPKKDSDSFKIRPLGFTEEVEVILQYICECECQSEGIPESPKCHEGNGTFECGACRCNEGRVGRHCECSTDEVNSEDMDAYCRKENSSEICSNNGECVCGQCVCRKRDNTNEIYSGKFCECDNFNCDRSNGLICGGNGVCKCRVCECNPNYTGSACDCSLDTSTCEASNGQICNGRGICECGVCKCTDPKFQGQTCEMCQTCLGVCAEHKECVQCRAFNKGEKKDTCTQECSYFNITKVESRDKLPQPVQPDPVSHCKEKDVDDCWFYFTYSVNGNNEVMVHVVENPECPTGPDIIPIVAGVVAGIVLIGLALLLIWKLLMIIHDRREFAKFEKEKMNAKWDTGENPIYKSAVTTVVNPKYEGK
Method: (§1) The binding capability of peptides or peptidomimectis, of synthetic compounds according to the invention to different cell lines displaying particular targets was investigated by using flow cytometry. Detached cells were incubated with biotinylated peptide/peptidomimetic or biotinylated synthetic compound in blocking buffer for at least 30 min of ice. The cells were washed twice with washing buffer followed by incubation with streptavidin labeled with the Peridinin-chlorophyll protein PerCP-Cy5.5 (BD Biosciences) for 15 minutes on ice. After one additional wash step, samples were analyzed using FACS Canto (at least 10,000 cells per sample were counted) for cells which have bound the biotinylated reagent plus the streptavidin-PerCP-Cy5.5. Overlay histograms of cells incubated with peptide or control peptide were generated and the geometrical mean fluorescence of each sample was determined in FloJo. The EC50 measurements were calculated using Graph Prism software.
(§2) The following cell lines were used. The presence or absence of the surface antigens α3 Integrin and αvβ6 Integrin has been verified by corresponding antibody tests: […]

[2] = tested on: α3 Integrin; assay: as above; parameters: species or system human; settings: FIG. 8; 200 nM biotinylated binder; K 562 does not express α3 Integrin
Method: as §1, §2

[3] = tested on: αvβ6 Integrin; assay: FACS analysis of cell binding, binder targeting αvβ6 Integrin; parameters: species or system human; settings: FIG. 9, 10 nM biotinylated binder
Method: as §1, §2

[4] = target: T2, αvβ6 Integrin (Homo sapiens, UniProt P06756+P18564); assay: as above; settings: FIG. 9, 10 nM biotinylated binder, vs scrambled variant
T2 construct: The presence or absence of the surface antigens α3 Integrin and αvβ6 Integrin has been verified by corresponding antibody tests; endogenous in cells
T2 sequence (P06756 31-889 limits assumed): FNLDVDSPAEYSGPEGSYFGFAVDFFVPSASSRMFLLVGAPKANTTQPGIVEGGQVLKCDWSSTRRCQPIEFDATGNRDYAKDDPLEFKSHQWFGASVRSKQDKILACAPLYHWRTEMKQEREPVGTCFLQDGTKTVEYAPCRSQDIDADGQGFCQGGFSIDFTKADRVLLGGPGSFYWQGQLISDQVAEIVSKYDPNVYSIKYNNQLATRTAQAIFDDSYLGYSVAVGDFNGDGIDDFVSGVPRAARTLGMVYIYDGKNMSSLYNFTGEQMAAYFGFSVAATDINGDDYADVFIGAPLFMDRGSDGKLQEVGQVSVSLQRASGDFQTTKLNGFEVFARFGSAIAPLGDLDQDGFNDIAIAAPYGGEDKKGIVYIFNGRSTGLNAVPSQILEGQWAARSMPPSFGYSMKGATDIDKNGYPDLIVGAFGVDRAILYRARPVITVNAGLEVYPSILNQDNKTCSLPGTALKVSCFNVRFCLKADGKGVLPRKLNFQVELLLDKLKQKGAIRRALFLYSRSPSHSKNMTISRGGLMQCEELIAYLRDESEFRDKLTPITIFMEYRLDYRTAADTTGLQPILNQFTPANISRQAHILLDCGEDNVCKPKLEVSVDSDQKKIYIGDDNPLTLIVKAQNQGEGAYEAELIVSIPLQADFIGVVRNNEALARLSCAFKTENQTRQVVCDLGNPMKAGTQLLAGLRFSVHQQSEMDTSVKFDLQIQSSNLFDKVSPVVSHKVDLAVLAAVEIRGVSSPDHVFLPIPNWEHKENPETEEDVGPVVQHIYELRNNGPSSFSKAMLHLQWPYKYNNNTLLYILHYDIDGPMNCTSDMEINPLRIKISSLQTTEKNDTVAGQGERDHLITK
T2 sequence (P06756 891-1048 limits assumed): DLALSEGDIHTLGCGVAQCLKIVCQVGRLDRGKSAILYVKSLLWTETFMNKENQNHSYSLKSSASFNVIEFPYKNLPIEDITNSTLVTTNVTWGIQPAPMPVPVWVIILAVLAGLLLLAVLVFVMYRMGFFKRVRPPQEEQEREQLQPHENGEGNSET
T2 sequence (P18564 22-788): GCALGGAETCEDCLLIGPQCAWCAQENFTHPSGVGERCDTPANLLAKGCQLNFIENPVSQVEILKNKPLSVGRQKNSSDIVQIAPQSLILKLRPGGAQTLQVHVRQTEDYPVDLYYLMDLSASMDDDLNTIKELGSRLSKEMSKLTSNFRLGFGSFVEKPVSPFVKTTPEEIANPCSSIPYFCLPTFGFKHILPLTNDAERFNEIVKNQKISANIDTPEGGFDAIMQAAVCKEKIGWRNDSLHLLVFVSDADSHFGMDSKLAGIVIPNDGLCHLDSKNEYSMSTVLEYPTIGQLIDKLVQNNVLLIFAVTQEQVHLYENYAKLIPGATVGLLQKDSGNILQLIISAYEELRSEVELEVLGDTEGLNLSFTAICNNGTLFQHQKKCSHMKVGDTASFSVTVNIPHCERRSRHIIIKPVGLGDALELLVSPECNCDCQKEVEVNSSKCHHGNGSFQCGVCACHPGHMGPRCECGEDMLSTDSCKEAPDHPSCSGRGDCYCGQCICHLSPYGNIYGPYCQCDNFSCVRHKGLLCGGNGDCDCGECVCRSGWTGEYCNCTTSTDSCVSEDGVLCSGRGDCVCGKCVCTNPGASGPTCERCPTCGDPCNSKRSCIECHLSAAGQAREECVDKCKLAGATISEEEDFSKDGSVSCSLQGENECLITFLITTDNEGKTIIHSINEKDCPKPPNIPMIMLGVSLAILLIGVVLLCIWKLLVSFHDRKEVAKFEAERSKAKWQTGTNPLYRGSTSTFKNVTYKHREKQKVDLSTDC
Method: as §1, §2

[5] = tested on: human leukocytes; assay: DHR 123 oxidation assay (oxidative burst), human leukocytes; type: cell-based; settings: FIG. 4B; in vitro in human leukocytes; compared with fMLF
Method: (§3) Oxidative burst in neutrophils form part of the cells host defense, and can be evoked, e.g., by the N-formyl peptide fMLP. (Kim et al, 2003). Oxidation assays are thus a useful tool to determine the potency of formyl peptides. The oxidative burst activity of neutrophils caused by incubation with effector peptides or peptidomimetics was measured by flow cytometry, quantifying the intracellular conversion of dihydrorhodamine 123 (DHR) to rhodamine. In brief, human or murine leukocytes (1.25*10^6 cells/ml) were incubated with catalase, cytochalasin B (Sigma) and DHR (Invitrogen) in Hanks' Buffered Saline Solution (HBSS, without Ca^2+, Mg^2+) with 10 mM Hepes pH 7.4, 5 mM EDTA and 0.3% BSA at 37° C. for 10 minutes followed by incubation with the different effector peptides or peptidomimetics at different concentrations for 15 minutes at 37° C. PMA was used as a positive control.
(§4) All samples were fixed in formaldehyde and kept on ice until analysis using FACS Canto (at least 20,000 cells per sample were counted). Neutrophils were identified based on forward and side scatter characteristics. Analysis of DHR fluorescence was performed by side scatter/FL2 dot plots. Percent of DHR-positive cells were identified by gating on a negative (unstimulated) control sample.

[6] = tested on: mouse leukocytes; assay: DHR 123 oxidation assay (oxidative burst), mouse leukocytes; type: cell-based; settings: FIG. 5; in vitro in mouse leukocytes; compared with fMLF
Method: as §3, §4

[7] = tested on: human leukocytes; assay: Chemotaxis assay; type: cell-based; settings: FIG. 4A; in vitro in human leukocytes; compared with fMLF (devoid of an Ile residue)
Method: To test for the chemotactic effect of effector peptides or peptidomimetics, human leukocytes were re-suspended in Hanks' Buffered Saline Solution (HBSS, without Ca^2+, Mg^2+) with 10 mM Hepes pH 7.4 and 0.3% BSA at 10*10^6 cells/ml. Cells were pre-warmed at 37° C. for 20 min. After adding the effector dilutions in the above buffer into wells of 24-well plates (800 μl/well), a Millicell culture plate insert with 5 μm pore size was placed in each well, followed by immediate addition of 200 μl (2 million) leukocytes. The plate was incubated at 37° C. for 45 min. The total number of leukocytes that migrated to the bottom chamber was determined using a Neubauer chamber, or the numbers of transmigrated monocytes, neutrophils and lymphocytes were determined by flow cytometry (distinguish cell populations in FCS/SSC plot).

## SEQ ID NO: 1: peptidomimetic binder cdGY(3-NO2)GHypNc targeting α3 Integrin; tested biotinylated ([dC][dD]G[Tyr(3-NO2)]G[Hyp]N[dC]; cysteine pairing not given here; also: tested biotinylated, site not given here)
[1]; A431 expresses α3 Integrin
  binding to cell line A431: binds
[1]; PC3 expresses α3 Integrin
  binding to cell line PC3: binds
[1]; U87-MG expresses α3 Integrin
  binding to cell line U87-MG: binds
[2]
  binding to cell line K 562: do not bind

## SEQ ID NO: 2: peptide binder RGDLATLRQL targeting αvβ6 Integrin; tested biotinylated (also: biotinylated, place not given here)
[3]; PC-3 does not express αvβ6 Integrin
  binding to cell line PC-3: do not bind
[3]; U87-MG does not express αvβ6 Integrin
  binding to cell line U87-MG: do not bind
[4]; A431 expresses αvβ6 Integrin
  binding to cell line A431: binds
[4]; HT-29 expresses αvβ6 Integrin
  binding to cell line HT-29: binds

## fMIFL: N-formyl methionine effector peptide fMIFL, comprises isoleucin; fM=N-formylmethionine, remaining letters L-amino acids (For-MIFL)
[5]
  activation of oxidative bursts: much better activation of oxidative bursts
[6]
  activation of oxidative bursts: much better activation of oxidative bursts
[7]
  chemotactic effect: significantly better chemotactic effect
